Results as given in ChEMBL document CHEMBL1201862, “PubChem BioAssay data set” (2004).
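1) Cells in 96-well plates. 2) Compound, 48 h, 5 concentrations. 3) Linear interpolation between surrounding doses. 4) Unreached endpoint = highest concentration. The concentration for 50% growth inhibition is given as GI50.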 The source made the active and inactive calls. Cut-off read from the data, not from the text of the source: active = GI50 up to about 1.1 µM and inactive = higher.

How the values were obtained:
Test in all cases: NCI anticancer screen, dose series, 48 h
SW-620 = test system: SW-620
MDA-MB-231 = test system: MDA-MB-231
BT-549 = test system: BT-549
CAKI-1 = test system: CAKI-1
HOP-92 = test system: HOP-92
KM12 = test system: KM12
OVCAR-3 = test system: OVCAR-3
OVCAR-4 = test system: OVCAR-4
SF-295 = test system: SF-295
A549 = test system: A549
EKVX = test system: EKVX
IGROV-1 = test system: IGROV-1
SK-MEL-28 = test system: SK-MEL-28
HCC 2998 = test system: HCC 2998
RPMI-8226 = test system: RPMI-8226
UO-31 = test system: UO-31
SK-OV-3 = test system: SK-OV-3
SN12C = test system: SN12C
NCI-H23 = test system: NCI-H23
K562 = test system: K562
COLO 205 = test system: COLO 205
HT-29 = test system: HT-29
SK-MEL-2 = test system: SK-MEL-2
SF-539 = test system: SF-539
OVCAR-5 = test system: OVCAR-5
HOP-62 = test system: HOP-62
RXF 393 = test system: RXF 393
SNB-75 = test system: SNB-75
UACC-257 = test system: UACC-257
DU-145 = test system: DU-145
A498 = test system: A498
UACC-62 = test system: UACC-62
HCT-15 = test system: HCT-15
SNB-19 = test system: SNB-19
MCF7 = test system: MCF7
NCI/ADR-RES = test system: NCI/ADR-RES
MOLT-4 = test system: MOLT-4
HCT-116 = test system: HCT-116
ACHN = test system: ACHN
NCI-H226 = test system: NCI-H226
MDA-N = test system: MDA-N
SK-MEL-5 = test system: SK-MEL-5
SR = test system: SR
786-0 = test system: 786-0
OVCAR-8 = test system: OVCAR-8
PC-3 = test system: PC-3
TK-10 = test system: TK-10
NCI-H460 = test system: NCI-H460
MDA-MB-435 = test system: MDA-MB-435
LOX IMVI = test system: LOX IMVI
M14 = test system: M14
HL-60 = test system: HL-60
Malme-3M = test system: Malme-3M
U-251 = test system: U-251
T47D = test system: T47D
NCI-H522 = test system: NCI-H522
CCRF-CEM = test system: CCRF-CEM
SF-268 = test system: SF-268
Hs-578T = test system: Hs-578T

Measured: GI50

[O-][n+]1c(CN2CCCCC2)nc2cccc3c2c1-c1ccccc1-3
inactive: SW-620 28.8 µM | MDA-MB-231 23 µM | BT-549 48.3 µM | CAKI-1 25.4 µM | HOP-92 25.1 µM | KM12 26.4 µM | OVCAR-3 21.6 µM | OVCAR-4 31.3 µM | SF-295 28.7 µM | A549 15.7 µM | EKVX 18.4 µM | IGROV-1 23.5 µM | SK-MEL-28 68.5 µM | HCC 2998 15 µM | RPMI-8226 23.7 µM | UO-31 11.9 µM | SK-OV-3 26.1 µM | SN12C 17.1 µM | NCI-H23 20.3 µM | K562 77.6 µM | COLO 205 16.9 µM | HT-29 17.3 µM | SK-MEL-2 23 µM | SF-539 23.9 µM | OVCAR-5 21.3 µM | HOP-62 19.6 µM | RXF 393 13.7 µM | SNB-75 24.6 µM | UACC-257 18.4 µM | DU-145 17.9 µM | A498 18.2 µM | UACC-62 16.4 µM | SNB-19 23.9 µM | MCF7 4.22 µM | NCI/ADR-RES 22.4 µM | MOLT-4 > 100 µM | HCT-116 12.8 µM | ACHN 18.6 µM | NCI-H226 16.9 µM | MDA-N 22.4 µM | SK-MEL-5 16.1 µM | SR 43.5 µM | 786-0 16.7 µM | OVCAR-8 22.8 µM | PC-3 31.3 µM | TK-10 27.2 µM | NCI-H460 18 µM | MDA-MB-435 32.1 µM | LOX IMVI 19.4 µM | M14 15.9 µM | HL-60 > 100 µM | Malme-3M 14.3 µM | U-251 29.4 µM
26.9 µM: HCT-15

C=C(CCC/C(C)=C/C=C/[C@H](C)CCCc1ccoc1)C[C@@H]1OC(=O)[C@H](C)[C@@H]1O
inactive: SW-620 12.8 µM | MDA-MB-231 9.89 µM | BT-549 8.69 µM | CAKI-1 8.99 µM | HOP-92 8.95 µM | KM12 9.79 µM | T47D 6.97 µM | OVCAR-3 7.64 µM | OVCAR-4 4.73 µM | SF-295 8.83 µM | A549 5.7 µM | EKVX 9.84 µM | IGROV-1 11.2 µM | SK-MEL-28 7.41 µM | HCC 2998 10.1 µM | RPMI-8226 10.8 µM | UO-31 7.69 µM | SK-OV-3 8.15 µM | NCI-H522 9.02 µM | SN12C 8.79 µM | NCI-H23 8.69 µM | K562 13.7 µM | COLO 205 12.6 µM | HT-29 15.1 µM | SK-MEL-2 9.14 µM | SF-539 8.63 µM | OVCAR-5 11 µM | HOP-62 8.63 µM | RXF 393 6.67 µM | CCRF-CEM 11.9 µM | SNB-75 8.75 µM | UACC-257 7.18 µM | DU-145 8.55 µM | A498 8.53 µM | UACC-62 7.98 µM | SNB-19 8.81 µM | MCF7 10.8 µM | NCI/ADR-RES 9.71 µM | MOLT-4 15.3 µM | HCT-116 11.5 µM | ACHN 9.18 µM | NCI-H226 8.18 µM | MDA-N 9.98 µM | SK-MEL-5 8.04 µM | SR 11.8 µM | 786-0 11.2 µM | OVCAR-8 11.9 µM | SF-268 9.2 µM | PC-3 8.65 µM | TK-10 10.6 µM | NCI-H460 12.5 µM | MDA-MB-435 9.06 µM | LOX IMVI 13.6 µM | M14 8.81 µM | Malme-3M 9.4 µM | U-251 11.8 µM
11.4 µM: HCT-15

CCOC(C)O[C@H]1C(=O)OCC1(C)C (some centres not stated)
> 100 µM: HCT-15
inactive: SW-620 > 100 µM | MDA-MB-231 > 100 µM | CAKI-1 > 100 µM | HOP-92 > 100 µM | KM12 > 100 µM | T47D > 100 µM | OVCAR-3 > 100 µM | OVCAR-4 > 100 µM | SF-295 > 100 µM | A549 > 100 µM | EKVX > 100 µM | IGROV-1 > 100 µM | SK-MEL-28 > 100 µM | HCC 2998 > 100 µM | RPMI-8226 > 100 µM | UO-31 > 100 µM | SK-OV-3 > 100 µM | NCI-H23 > 100 µM | K562 80.7 µM | COLO 205 > 100 µM | HT-29 > 100 µM | SK-MEL-2 > 100 µM | SF-539 > 100 µM | OVCAR-5 > 100 µM | HOP-62 > 100 µM | RXF 393 > 100 µM | CCRF-CEM > 100 µM | SNB-75 > 100 µM | UACC-257 > 100 µM | DU-145 > 100 µM | A498 > 100 µM | UACC-62 > 100 µM | SNB-19 > 100 µM | MCF7 > 100 µM | NCI/ADR-RES > 100 µM | MOLT-4 34.9 µM | ACHN > 100 µM | NCI-H226 > 100 µM | MDA-N > 100 µM | SK-MEL-5 > 100 µM | SR > 100 µM | 786-0 > 100 µM | OVCAR-8 > 100 µM | SF-268 > 100 µM | PC-3 > 100 µM | TK-10 > 100 µM | NCI-H460 > 100 µM | Hs-578T > 100 µM | MDA-MB-435 > 100 µM | LOX IMVI > 100 µM | M14 > 100 µM | HL-60 > 100 µM | Malme-3M > 100 µM | U-251 > 100 µM

COC1OC(COC(=O)c2cc(O)c(O)c(O)c2)C(OC(=O)c2cc(O)c(O)c(O)c2)C(OC(=O)c2cc(O)c(O)c(O)c2)C1OC(=O)c1cc(O)c(O)c(O)c1 (configuration not stated)
47.2 µM: HCT-15
inactive: SW-620 31.6 µM | MDA-MB-231 26.2 µM | CAKI-1 41.4 µM | HOP-92 74 µM | KM12 22.4 µM | T47D 52.4 µM | OVCAR-3 29.9 µM | OVCAR-4 41.3 µM | SF-295 34.9 µM | A549 33 µM | EKVX 25.9 µM | IGROV-1 27.4 µM | SK-MEL-28 > 100 µM | HCC 2998 58.2 µM | RPMI-8226 28.3 µM | UO-31 17.1 µM | SK-OV-3 4.78 µM | NCI-H522 15 µM | SN12C 27.2 µM | NCI-H23 78.5 µM | K562 21.5 µM | COLO 205 39.4 µM | HT-29 33.5 µM | SK-MEL-2 > 100 µM | SF-539 12.4 µM | OVCAR-5 57.5 µM | HOP-62 7.33 µM | RXF 393 64.1 µM | CCRF-CEM 12.8 µM | SNB-75 26.3 µM | UACC-257 > 100 µM | DU-145 69.5 µM | A498 1.77 µM | UACC-62 14.4 µM | SNB-19 43.4 µM | MCF7 > 100 µM | NCI/ADR-RES 29.2 µM | MOLT-4 11.8 µM | HCT-116 33 µM | ACHN 19 µM | NCI-H226 4.48 µM | MDA-N 27.8 µM | SK-MEL-5 13.3 µM | SR 11.1 µM | 786-0 13.3 µM | OVCAR-8 27.2 µM | SF-268 27 µM | PC-3 50.7 µM | TK-10 > 100 µM | NCI-H460 9.2 µM | Hs-578T > 100 µM | MDA-MB-435 12.9 µM | LOX IMVI 13.5 µM | M14 13.1 µM | HL-60 18.4 µM | Malme-3M 27.9 µM | U-251 10.6 µM

COc1cc(O)c2c(=O)c(O)c(-c3ccc(O)c(OC)c3)oc2c1 [RHAMNAZIN]
inactive: SW-620 18.5 µM | MDA-MB-231 5.57 µM | BT-549 2 µM | CAKI-1 3.5 µM | KM12 3.47 µM | T47D > 100 µM | OVCAR-3 2.52 µM | OVCAR-4 2.48 µM | SF-295 > 100 µM | A549 > 22.9 µM | EKVX > 22.3 µM | IGROV-1 > 100 µM | HCC 2998 7.6 µM | RPMI-8226 5.98 µM | NCI-H522 2.3 µM | SN12C > 100 µM | NCI-H23 > 26.5 µM | K562 4.37 µM | COLO 205 33.7 µM | HT-29 44.2 µM | SK-MEL-2 > 100 µM | SF-539 3.7 µM | OVCAR-5 > 100 µM | CCRF-CEM 2.92 µM | SNB-75 2.28 µM | UACC-257 > 100 µM | DU-145 > 100 µM | A498 2.73 µM | SNB-19 3.83 µM | MCF7 2.72 µM | NCI/ADR-RES 5.05 µM | MOLT-4 4.41 µM | HCT-116 5.15 µM | NCI-H226 > 26.5 µM | MDA-N 4.8 µM | 786-0 3.44 µM | OVCAR-8 3.52 µM | SF-268 1.89 µM | PC-3 11 µM | TK-10 > 100 µM | NCI-H460 2.64 µM | LOX IMVI 3.19 µM | M14 4.66 µM | HL-60 4.11 µM | Malme-3M > 100 µM | U-251 2.19 µM
active: HOP-92 0.838 µM
> 19.6 µM: HCT-15
